What all share (assay type): cell-based
The nature of series [1]: Cytotoxic effect against L cells. To be noted: mouse, 10⁻⁴ M, % growth relative to the control. The protocol:
(§1) The following compounds were tested for cytotoxic effect at 10⁻⁴ M against human D-98 and mouse L cells. Figures shown are % growth relative to the control.

Series [2] can be described thus: Cytotoxic effect against D-98 cells. The settings on record: human, 10⁻⁴ M, % growth relative to the control. The protocol: as §1
Series [3] has as its system friend leukaemia virus. The series can be described thus: Retroviral activity against friend leukaemia virus. The settings on record: read-out: ED₅₀. The protocol: (§2) • a) Feline Leukaemia Virus Susceptible feline embryo lung fibroblasts (FLF-3) were seeded onto multiwell slides (10⁵ cells/ml, 0.05 ml/well) with Dulbecco-modified Eagle's essential medium (DME) and incubated at 37 °C overnight. Each of the 32 wells was then infected with 40-60 focus forming units (ffu) of feline leukaemia virus (FeLV) for one hour after which the medium was replaced with fresh DME with varying concentrations of 2,6-diaminopurine-9-β-D-2',3'-dideoxyribofuranoside per 4 wells. Concentrations were 0, 1.0, 10, 50, 100, 200 and 400 »M. After 3 days incubation at 37 °C, the cultures were assayed by the indirect fluorescent antigen test for the production of FeLV. […]. […] This protective effect was seen on both days 10 and 13 of the experiment. • c) Friend Leukaemia virus The compounds have been tested for retroviral activity against friend leukaemia virus with the following results.

Series [4] relates to feline leukaemia virus (FeLV). The series is described as follows: Feline leukaemia virus production in infected FLF-3 fibroblasts, indirect fluorescent antigen test. The settings on record: FLF-3 cells; for inhibition: 3 days incubation. As to the method: as §2
For series [5], the system named is HIV. The series can be described thus: Block of HIV infection / cytopathic effect in cloned T4 positive T helper lymphocytes (cell survival). The settings on record: after 10 days in culture (protective effect seen on days 10 and 13), up to 5000 virions/cell, untreated infected cells 8-fold decreased. The protocol:
as §2
For orientation: Cytopathic effects are the visible damage that an infection or toxin causes in cultured cells.

The term inhibition denotes the change of the read-out against control, counted positive when it falls. High values mean a response far below the control, low ones a response near the control.

Take `Nc1nc2c(ncn2[C@H]2CC[C@@H](CO)O2)c(=O)[nH]1` [2',3'-dideoxyguanosine, reference compound]: the results for the activity at 100 µM in series [1] and in series [2] were 93% and 87%, respectively. Besides, the EC50 in series [3] is 25.9 µM.

Consider `Nc1nc(N)c2ncn([C@H]3CC[C@@H](CO)O3)c2n1` [2,6-Diaminopurine-9-β-D-2',3'-dideoxyribofuranoside], for which the inhibition in series [4] (0.1 »M) is recorded as 31%; in series [4] (10 »M), 45%; in series [4] (50 »M) it was 60%. In addition, the “production of FeLV” value in series [4] (concentrations of 100 »M and above, 3 days incubation at 37°C) is “Complete absence of FeLV”. The activity at 100 µM came out at 41% in series [1] and 97% in series [2]. The “viral cytopathic effects in infected T cells” value in series [5] (2 »M) and in series [5] (10 »M) was “no viral cytopathic effects were seen” in each case. Besides, the EC50 in series [3] amounted to 22.4 µM.

Turning to `Nc1ncc2ncn([C@H]3CC[C@@H](CO)O3)c2n1` [2-Aminopurine-9-β-D-2',3'-dideoxyribofuranoside], the activity at 100 µM is 107% in series [1] and 97% in series [2].

(Values after patent publication EP0206497B1, “Therapeutic nucleosides and their preparation” (priority 1985, dated 1986).)
